Source: patent US10822664B2, “Sequence-specific detection and phenotype determination” (priority 2015, dated 2020)

Key:
[1] = test system: E. coli 1289018, 1289023, 1289027, and 1289011; assay: CRISPR/Cas9 cell-reporter AST assay; format: cell-based
Excerpt: Enterobacteriaceae cell reporters as described in PCT/US2014/026536, Example 1 are designed with reporter plasmids that also carry single-guide[14] CRISPR/Cas9 systems with CRISPR loci that carry sequences targeting blaNDM-1 and blaSHV-18 genes (Table 1, SEQ ID NOs 11 & 13) a carbapenem resistance and extended β-lactam resistance gene, respectively. The reporter plasmid pGWP10001 is modified to include the cas9 gene, tracrRNA under the control of the PL(tetO-1) promoter, and a CRISPR cloning site, and CRISPR loci are designed to target the blaNDM-1 (SEQ ID NO 4) and blaSHV-18 (SEQ ID NO 5) genes and each are cloned into pGWP10001/CRISPR/Cas9 vectors to generate reporter plasmids that simultaneously target the blaNDM-1 and blaSHV-18 genes.
The vectors are used to generate non-replicative transduction particles carrying each plasmid and these are employed in a reporter system for determining the mechanism responsible to β-lactam non-susceptibility. Briefly, cultures of E. coli 1289018 (blaNDM-1, blaSHV-18-negative), 1289023 (blaNDM-1-positive), 1289027 (blaSHV-positive), and 1289011 (blaVIM-positive) are prepared and used to inoculate wells of a microwell plate containing 50 μL of LB with 50 μL of inoculum such that each well receives 10^4 CFU of each strain of bacteria. To these wells 100 μL of the following is added: a set of wells contain 5 μg/mL of meropenem and blaNDM-1-targetting NRTP, another set of wells contain 5 μg/mL of meropenem and blaSHV-18-NRTP, another set of wells contain 5 μg/mL of ceftazidime and blaNDM-1-targetting NRTP, and another set of wells contain 5 μg/mL of ceftazidime and blaSHV-18-NRTP. The samples are then incubated at 30° C. for 2 hours and then the samples are assayed for luminescence as described in Example 1.

[2] = test system: E. coli 1289011, 1289012, 1289014, and 1289018; assay: AST meropenem/peptide-PNA disk diffusion testing; format: cell-based; conditions: for meropenem disk diffusion result: 10 μg meropenem disk, FIG. 4; for zone diameter compared to that of meropenem alone: 10 μg meropenem disk including peptide-PNA
Method: Disk diffusion testing is conducted following CLSI-M02 (12) and interpreted following M100-S22 (13). Briefly, for testing each bacterium for susceptibility to meropenem, a Mueller-Hinton agar (MHA) plates are inoculated using a sterile cotton swab dipped into a suspension of a culture of bacteria at a 0.5 McFarland standard such that the entire surface of the MHA is covered. A 10 μg meropenem disk is applied to the surface of the inoculated plate and the plate is incubated at 35° C. in ambient air for 16 to 18 hours. The strain of bacteria is determined to be susceptible to meropenem if the diameter of the zone of inhibition around the meropenem disk is ≥23 mm and resistant to meropenem if the zone diameter is ≤19 mm.
The second row of FIG. 4 depicts the typical meropenem disk diffusion results for the E. coli strains where 1289011, 1289012, and 1289014 are CRE and 1289018 is CSE.
To determine the specific mechanism linked to the meropenem-resistant phenotype, disk diffusion testing is conducted with 10 μg meropenem disks including blaKPC-3- and blaNDM-1-peptide-PNA. If the peptide-PNA inhibits the specific carbapenemase linked to the meropenem resistance in the E. coli strain, then the zone diameter observed will be […] when compared to the zone diameter of the strain when exposed to a disk containing only meropenem.

[3] = test system: E. coli 1289011, 1289012, 1289014, and 1289018; assay: Peptide-PNA cell-reporter AST assay (Enterobacteriaceae reporter); format: cell-based
Method: In this example, the AST technique described in Example 2 is extended to AST testing based on cell-reporter assays. An Enterobacteriaceae cell reporter as described in PCT/US2014/026536, Example 1 is employed and the assay is run as follows. Briefly, cultures of E. coli 1289011, 1289012, 1289014, and 1289018 are prepared and used to inoculate wells of a microwell plate containing 50 μL of LB with 50 μL of inoculum such that each well receives 10^4 CFU of each strain of bacteria. A set of wells contain no additional additives, another set of wells contain 5 μg/mL of meropenem, another set of wells contain 5 μg/mL of meropenem and blaKPC-3-peptide-PNA, another set of wells contain 5 μg/mL of meropenem and blaNDM-1-peptide-PNA, and another two set of wells contain only blaKPC-3 or blaNDM-1 peptide-PNA, respectively. All wells also receive 100 μL of the Enterobacteriaceae reporter. The samples are then incubated at 30° C. for 2 hours and then the samples are assayed for luminescence as described in Example 1.

Enterococcus spp. = assay: VRE cell-reporter assay (Enterococcus reporter); format: cell-based, E. faecalis, E. faecium, E. casseliflavus; conditions: 5 μg/mL vancomycin, FIG. 7 column 2
Excerpt: In this example an Enterococcus cell reporter is employed in combination with vancomycin and antisense molecules targeting vanC-2 gene expression. The assay allows for the detection of VRE and discrimination from vancomycin-sensitive Enterococcus (VSE) and Enterococcus expressing the vanC-2 gene and not the vanA or vanB genes. The Enterococcus reporter is designed to cause Enterococcus spp. to produce a detectable signal. A Peptide-PNA is designed to target vanC-2 transcripts.
Briefly, cultures of VSE E. faecalis 1259012, vanA-positive VRE E. faecalis 1259016, VSE E. faecium 1269011, vanB-positive VRE E. faecium 1269014, and vanC-2-positive vancomycin non-susceptible E. casseliflavus 1279015 are prepared and used to inoculate wells of a microwell plate containing 50 μL of LB with 50 μL of inoculum such that each well receives 10^4 CFU of each strain of bacteria. A set of wells contains no additional additives, another set of wells contains 5 μg/mL of vancomycin, and another set of wells contains 5 μg/mL of vancomycin and vanC-2-peptide-PNA. All wells also receive 100 μL of the Enterococcus reporter. The samples are then incubated at 37° C. for 2 hours and then the samples are assayed for luminescence as described in Example 1.

K. pneumoniae [4] = assay: Enterobacteriaceae luminescent-reporter NRTP assay with murA PNA, K. pneumoniae; format: cell-based; conditions: murA PNA 4.5 μM, 30° C. for 2 hours, FIG. 3
Method: (§1) Isolates of E. coli and K. pneumoniae were grown overnight in LB at 37° C. and sub-cultured the next day at a 1:100 dilution into fresh LB and grown to an OD600 of 0.2. Inoculums of each strain of approximately 10^4 CFU of each species of bacteria were added to separate wells of a microplate each containing 50 μL of LB or LB with murA PNA at a final concentration of 4.5 μM. All wells subsequently received 100 uL of an Enterobacteriaceae luminescent-reporter non-replicative transduction particle as described in PCT/US2014/026536, Example 1 and the samples were incubated at 30° C. for 2 hours. After the incubation period, the plates were assayed for luminescence using a Molecular Devices SpectraMax L microplate luminometer in which a solution of tridecanal was injected into each well as luminescence readings were taken.

K. pneumoniae [5] = assay: Effect of murA PNA on growth (OD600) of K. pneumoniae; format: cell-based; conditions: murA PNA 4.5 μM in LB; OD600 over 8 hours; FIG. 2
Method: (§2) Isolates of E. coli and K. pneumoniae were grown overnight in LB at 37° C. and sub-cultured the next day at a 1:100 dilution into fresh LB and grown to an optical density at 600 nm (OD600) of 0.2. Inoculums of each strain of approximately 10^4 CFU of each species of bacteria were added to separate wells of a microplate each containing 50 μL of LB or LB with murA PNA at a final concentration of 4.5 μM. OD600 readings were measured over a period of 8 hours to assess growth of PNA-treated and PNA-untreated cells.

E. coli [6] = assay: Enterobacteriaceae luminescent-reporter NRTP assay with murA PNA, E. coli; format: cell-based; conditions: murA PNA 4.5 μM, 30° C. for 2 hours, FIG. 3
Method: as §1

E. coli [7] = assay: Effect of murA PNA on growth (OD600) of E. coli; format: cell-based; conditions: murA PNA 4.5 μM in LB; OD600 over 8 hours; FIG. 1
Method: as §2

[8] = E. coli 1289018, 5 μg/mL β-lactam, regardless of which NRTP, FIG. 6 row 1
[9] = E. coli 1289011, 5 μg/mL meropenem and peptide-PNA
[10] = E. coli 1289012, 5 μg/mL meropenem and peptide-PNA
[11] = E. coli 1289014, 5 μg/mL meropenem and peptide-PNA

Compound | inhibition in reporter assay [1, 8] | zone diameter compared to that of meropenem alone ([2]; E. coli 1289011) | zone diameter compared to that of meropenem alone ([2]; E. coli 1289012) | zone diameter compared to that of meropenem alone ([2]; E. coli 1289014) | reporter assay signal [3, 9] | reporter assay signal [3, 10] | reporter assay signal [3, 11] | also measured
CC(C)(O/N=C(\C(=O)N[C@@H]1C(=O)N2C(C(=O)[O-])=C(C[n+]3ccccc3)CS[C@H]12)c1csc(N)n1)C(=O)O [ceftazidime] | inhibited | – | – | – | – | – | – | –
C[C@@H](O)[C@H]1C(=O)N2C(C(=O)O)=C(S[C@@H]3CN[C@H](C(=O)N(C)C)C3)[C@H](C)[C@H]12 [meropenem, reference compound] | inhibited | – | – | – | – | – | – | meropenem disk diffusion result ([2]; E. coli 1289011): CRE; meropenem disk diffusion result ([2]; E. coli 1289012): CRE; meropenem disk diffusion result ([2]; E. coli 1289014): CRE; meropenem disk diffusion result ([2]; E. coli 1289018): CSE; reporter assay signal ([3]; 5 μg/mL meropenem, all E. coli strains except 1289018, FIG. 5 column 2): continue to give a positive signal; inhibition in reporter assay ([1]; E. coli 1289027 (blaSHV-positive), 5 μg/mL meropenem, FIG. 6 row 3): inhibited
CN[C@H](CC(C)C)C(=O)N[C@H]1C(=O)N[C@@H](CC(N)=O)C(=O)N[C@H]2C(=O)N[C@H]3C(=O)N[C@H](C(=O)N[C@H](C(=O)O)c4cc(O)cc(O)c4-c4cc3ccc4O)[C@H](O)c3ccc(c(Cl)c3)Oc3cc2cc(c3O[C@@H]2O[C@H](CO)[C@@H](O)[C@H](O)[C@H]2O[C@H]2C[C@](C)(N)[C@H](O)[C@H](C)O2)Oc2ccc(cc2Cl)[C@H]1O [vancomycin] | – | – | – | – | – | – | – | reporter assay signal (Enterococcus spp.; strains expressing a van gene): continue to give a positive signal; reporter assay signal (Enterococcus spp.; strains not carrying a van gene): do not
KFFKFFKFFK-eg-ccatttagtt (CCATTTAGTT; all peptide nucleic acid (PNA); further chemistry not fully specified) [murA PNA] | – | – | – | – | – | – | – | luminescence signal produced by K. pneumoniae (K. pneumoniae [4]): does not inhibit signal production; growth of K. pneumoniae (K. pneumoniae [5]): not compromised; luminescence signal produced by E. coli (E. coli [6]): compromised; growth of E. coli (E. coli [7]): compromised
blaKPC-3 peptide-PNA: PNA (SEQ ID NO 2) targeting the TIR of blaKPC-3, conjugated to the peptide KFFKFFKFFK (TCAACGATAT; all peptide nucleic acid (PNA); further chemistry not fully specified) | – | not reduced | reduced | not reduced | continues to produce a positive signal | no longer produces a positive signal | continues to produce a positive signal | –
blaNDM-1 peptide-PNA: PNA (SEQ ID NO 3) targeting the TIR of blaNDM-1, conjugated to the peptide KFFKFFKFFK (TCAAGTTTTCC; all peptide nucleic acid (PNA); further chemistry not fully specified) | – | not reduced | not reduced | reduced | continues to produce a positive signal | continues to produce a positive signal | no longer produces a positive signal | –
